Reference: ChEMBL document CHEMBL1138328, “Coumarin-based inhibitors of human NAD(P)H:quinone oxidoreductase-1. Identification, structure-activity, off-target effects and in vitro human pancreatic cancer toxicity” (J Med Chem, 2007)
The source made the active and inactive calls. The rule behind the calls is not given here.

Tests used:
[1] = biological target: T1, NAD(P)H dehydrogenase [quinone] 1 (Homo sapiens, UniProt P15559)
Description: Inhibition of human recombinant NQO1

[2] = biological target: T1, NAD(P)H dehydrogenase [quinone] 1; remark: listed apart in the source
Description: Inhibition of human recombinant NQO1 in presence of BSA

MIA PaCa-2 [3] = assay: Effect on respiration rate in human MIA PaCa2 cells assessed as oxygen consumption per 10^6 cells at 100 uM; assay type: functional
MIA PaCa-2 [4] = assay: Cytotoxicity against human MIA PaCa2 cells by MTT assay; assay type: functional, cell-based
MIA PaCa-2 [5] = assay: Growth inhibition of human MIA PaCa2 cells; assay type: functional, cell-based
MIA PaCa-2 [6] = assay: Induction of superoxide formation in human MIA PaCa2 cells; assay type: functional, cell-based

T1 sequence (P15559 whole entry): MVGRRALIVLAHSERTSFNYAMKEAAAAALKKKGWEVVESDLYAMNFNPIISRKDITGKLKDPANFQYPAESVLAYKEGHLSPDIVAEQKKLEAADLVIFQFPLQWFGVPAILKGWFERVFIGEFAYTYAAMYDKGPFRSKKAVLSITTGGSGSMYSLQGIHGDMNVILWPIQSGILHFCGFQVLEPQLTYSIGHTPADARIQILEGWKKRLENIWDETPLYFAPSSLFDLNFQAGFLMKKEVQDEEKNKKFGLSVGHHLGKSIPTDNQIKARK

SMILES	IC50 [1]	IC50 [2]	Activity (MIA PaCa-2 [3])	IC50 (MIA PaCa-2 [4])	Activity (MIA PaCa-2 [5])	Activity (MIA PaCa-2 [6])
COc1ccc(C(c2c(O)c3ccccc3oc2=O)c2c(O)c3ccccc3oc2=O)cc1	0.22 µM	8.7 µM	–	–	–	–
O=c1c(C(c2ccc3ccccc3c2)c2c(O)oc3ccccc3c2=O)c(O)oc2ccccc12	0.14 µM	8.5 µM	–	–	–	–
O=c1c(Cc2c(O)oc3cc(O)ccc3c2=O)c(O)oc2cc(O)ccc12	0.005 µM	0.35 µM	2.6 nmol/min	190 µM	Dose-dependent effect	–
O=c1oc2ccccc2c(O)c1C1c2ccccc2Oc2c1c(=O)oc1ccccc21 (stereo unspecified)	–	–	2.5 nmol/min	150 µM	Dose-dependent effect	–
O=c1c(C(c2cnc3ccccc3c2)c2c(O)oc3ccccc3c2=O)c(O)oc2ccccc12	0.38 µM	18 µM	–	–	–	–
O=C1OC2C=CC=CC2=C2Oc3c(c(=O)oc4ccccc34)C(c3c(O)c4ccccc4oc3=O)C12 (stereo unspecified)	0.25 µM	0.6 µM	2.5 nmol/min	140 µM	Dose-dependent effect	–
O=c1c(C(c2cccs2)c2c(O)oc3ccccc3c2=O)c(O)oc2ccccc12	0.55 µM	10 µM	–	–	–	–
O=c1c(C(c2ccco2)c2c(O)oc3ccccc3c2=O)c(O)oc2ccccc12	1.3 µM	5.9 µM	–	–	–	–
Nc1cc(=O)oc2ccccc12	3.25 µM	13 µM	–	–	–	–
O=c1oc2ccccc2c(O)c1Cc1c(O)c2ccccc2oc1=O [DICUMAROL]	–	–	7 nmol/min	75 µM	Dose-dependent effect	Active
COc1cc(C(c2c(O)c3ccccc3oc2=O)c2c(O)c3ccccc3oc2=O)ccc1O	0.65 µM	10 µM	–	–	–	–
